Species: Rattus norvegicus
Assay: DrugMatrix - Regimen: Daily Repeat
Assay type: toxicity, organism-based, Sprague-Dawley
Design: regimen Daily Repeat, gender Male, age 6-8 weeks
Conditions: in vivo, po, route oral GAVAGE, […]; for ABSOLUTE BASOPHIL / ABSOLUTE EOSINOPHIL / ABSOLUTE LYMPHOCYTE / ABSOLUTE MONOCYTE / ABSOLUTE SEGMENTED NEUTROPHIL / BASOPHIL / EOSINOPHIL / ERYTHROCYTE COUNT / HEMATOCRIT / HEMOGLOBIN / LEUKOCYTE COUNT / LYMPHOCYTE / MEAN CORPUSCULAR HEMOGLOBIN / MEAN CORPUSCULAR HEMOGLOBIN CONCENTRATION / MEAN CORPUSCULAR VOLUME / MONOCYTE / NEUTROPHIL / NUCLEATED RED BLOOD CELLS / PLATELET COUNT: tissue Blood; for ALANINE AMINOTRANSFERASE / ALBUMIN / ALKALINE PHOSPHATASE / ASPARTATE AMINOTRANSFERASE / BLOOD UREA NITROGEN / CARBON DIOXIDE / CHLORIDE / CHOLESTEROL / CREATINE PHOSPHOKINASE / CREATININE / GLUCOSE / LACTATE DEHYDROGENASE / LIPASE / PHOSPHORUS / POTASSIUM / SODIUM / TOTAL BILIRUBIN / TOTAL PROTEIN / URIC ACID: tissue Plasma
[1] = 47 mg/kg, 120 h, dose level Low, time 5 day
[2] = 250 mg/kg, 72 h, dose level High, time 3 day
[3] = 250 mg/kg, 120 h, dose level High, time 5 day

CC(=O)Nc1nnc(S(N)(=O)=O)s1 [ACETAZOLAMIDE]
ABSOLUTE BASOPHIL [1]: 0 CELLS/uL | ABSOLUTE EOSINOPHIL [1]: 0 CELLS/uL | ABSOLUTE LYMPHOCYTE [1]: 10200 CELLS/uL | ABSOLUTE MONOCYTE [1]: 261.33 CELLS/uL | ABSOLUTE SEGMENTED NEUTROPHIL [1]: 672 CELLS/uL | BASOPHIL [1]: 0% | EOSINOPHIL [1]: 0% | ERYTHROCYTE COUNT [1]: 5.43 x10E6/uL | HEMATOCRIT [1]: 33.83% | HEMOGLOBIN [1]: 13.43 G/DL | LEUKOCYTE COUNT [1]: 11.13 x10E3/uL | LYMPHOCYTE [1]: 91.67% | MEAN CORPUSCULAR HEMOGLOBIN [1]: 24.73 pg | MEAN CORPUSCULAR HEMOGLOBIN CONCENTRATION [1]: 39.7 G/DL | MEAN CORPUSCULAR VOLUME [1]: 62.3 fL | MONOCYTE [1]: 2.33% | NEUTROPHIL [1]: 6% | NUCLEATED RED BLOOD CELLS [1]: 0.33 /100WBC | PLATELET COUNT [1]: 1186.33 x10E3/uL | ALANINE AMINOTRANSFERASE [1]: 60.33 u/L | ALBUMIN [1]: 4.07 G/DL | ALKALINE PHOSPHATASE [1]: 448.67 u/L | ASPARTATE AMINOTRANSFERASE [1]: 74.67 u/L | BLOOD UREA NITROGEN [1]: 14 mg/dL | CARBON DIOXIDE [1]: 27.67 mmol/L | CHLORIDE [1]: 104 MEQ/L | CHOLESTEROL [1]: 61.33 mg/dL | CREATINE PHOSPHOKINASE [1]: 271.67 u/L | CREATININE [1]: 0.14 mg/dL | GLUCOSE [1]: 155 mg/dL | LACTATE DEHYDROGENASE [1]: 142 u/L | LIPASE [1]: 10.33 u/L | PHOSPHORUS [1]: 9.17 mg/dL | POTASSIUM [1]: 5.17 MEQ/L | SODIUM [1]: 145.83 MEQ/L | TOTAL BILIRUBIN [1]: 0.23 mg/dL | TOTAL PROTEIN [1]: 6.07 G/DL | URIC ACID [1]: 0.33 mg/dL | ABSOLUTE BASOPHIL [2]: 0 CELLS/uL | ABSOLUTE EOSINOPHIL [2]: 0 CELLS/uL | ABSOLUTE LYMPHOCYTE [2]: 8200.33 CELLS/uL | ABSOLUTE MONOCYTE [2]: 117.33 CELLS/uL | ABSOLUTE SEGMENTED NEUTROPHIL [2]: 382.33 CELLS/uL | BASOPHIL [2]: 0% | EOSINOPHIL [2]: 0% | ERYTHROCYTE COUNT [2]: 5.26 x10E6/uL | HEMATOCRIT [2]: 32.4% | HEMOGLOBIN [2]: 12.8 G/DL | LEUKOCYTE COUNT [2]: 8.7 x10E3/uL | LYMPHOCYTE [2]: 94.33% | MEAN CORPUSCULAR HEMOGLOBIN [2]: 24.33 pg | MEAN CORPUSCULAR HEMOGLOBIN CONCENTRATION [2]: 39.5 G/DL | MEAN CORPUSCULAR VOLUME [2]: 61.57 fL | MONOCYTE [2]: 1.33% | NEUTROPHIL [2]: 4.33% | NUCLEATED RED BLOOD CELLS [2]: 0 /100WBC | PLATELET COUNT [2]: 1163 x10E3/uL | ALANINE AMINOTRANSFERASE [2]: 77 u/L | ALBUMIN [2]: 3.83 G/DL | ALKALINE PHOSPHATASE [2]: 352.67 u/L | ASPARTATE AMINOTRANSFERASE [2]: 83.67 u/L | BLOOD UREA NITROGEN [2]: 11.67 mg/dL | CARBON DIOXIDE [2]: 29.67 mmol/L | CHLORIDE [2]: 101.67 MEQ/L | CHOLESTEROL [2]: 73.33 mg/dL | CREATINE PHOSPHOKINASE [2]: 296.33 u/L | CREATININE [2]: 0.37 mg/dL | GLUCOSE [2]: 157 mg/dL | LACTATE DEHYDROGENASE [2]: 154 u/L | LIPASE [2]: 11.33 u/L | PHOSPHORUS [2]: 9.67 mg/dL | POTASSIUM [2]: 4.85 MEQ/L | SODIUM [2]: 144.27 MEQ/L | TOTAL BILIRUBIN [2]: 0.2 mg/dL | TOTAL PROTEIN [2]: 5.67 G/DL | URIC ACID [2]: 0.33 mg/dL | ABSOLUTE BASOPHIL [3]: 0 CELLS/uL | ABSOLUTE EOSINOPHIL [3]: 64 CELLS/uL | ABSOLUTE LYMPHOCYTE [3]: 8180.67 CELLS/uL | ABSOLUTE MONOCYTE [3]: 154.33 CELLS/uL | ABSOLUTE SEGMENTED NEUTROPHIL [3]: 767.67 CELLS/uL | BASOPHIL [3]: 0% | EOSINOPHIL [3]: 0.67% | ERYTHROCYTE COUNT [3]: 5.67 x10E6/uL | HEMATOCRIT [3]: 35.23% | HEMOGLOBIN [3]: 13.9 G/DL | LEUKOCYTE COUNT [3]: 9.17 x10E3/uL | LYMPHOCYTE [3]: 89.33% | MEAN CORPUSCULAR HEMOGLOBIN [3]: 24.53 pg | MEAN CORPUSCULAR HEMOGLOBIN CONCENTRATION [3]: 39.47 G/DL | MEAN CORPUSCULAR VOLUME [3]: 62.1 fL | MONOCYTE [3]: 1.67% | NEUTROPHIL [3]: 8.33% | NUCLEATED RED BLOOD CELLS [3]: 0 /100WBC | PLATELET COUNT [3]: 1233.67 x10E3/uL | ALANINE AMINOTRANSFERASE [3]: 59 u/L | ALBUMIN [3]: 4.03 G/DL | ALKALINE PHOSPHATASE [3]: 354.67 u/L | ASPARTATE AMINOTRANSFERASE [3]: 71 u/L | BLOOD UREA NITROGEN [3]: 15 mg/dL | CARBON DIOXIDE [3]: 23.33 mmol/L | CHLORIDE [3]: 109.33 MEQ/L | CHOLESTEROL [3]: 66 mg/dL | CREATINE PHOSPHOKINASE [3]: 397 u/L | CREATININE [3]: 0.18 mg/dL | GLUCOSE [3]: 141.67 mg/dL | LACTATE DEHYDROGENASE [3]: 111.33 u/L | LIPASE [3]: 10.33 u/L | PHOSPHORUS [3]: 8.57 mg/dL | POTASSIUM [3]: 5.2 MEQ/L | SODIUM [3]: 146 MEQ/L | TOTAL BILIRUBIN [3]: 0.17 mg/dL | TOTAL PROTEIN [3]: 6.1 G/DL | URIC ACID [3]: 0.53 mg/dL
